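Each compound was tested at five concentrations against cells in 96-well plates for 48 hours. The concentration for 50% growth inhibition is given as GI50.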 The source made the active and inactive calls. Cut-off read from the data, not from the text of the source: active = GI50 up to about 1.1 µM and inactive = higher.
What was measured:
Experiment in all cases: NCI anticancer screen, dose series, 48 h
[1] = system: 786-0
[2] = system: A498
[3] = system: CCRF-CEM
[4] = system: HT-29
[5] = system: IGROV-1
[6] = system: KM12
[7] = system: NCI-H226
[8] = system: SF-295
[9] = system: SF-539
[10] = system: SK-MEL-28
[11] = system: SK-MEL-2
[12] = system: SK-MEL-5
[13] = system: UACC-257
[14] = system: M14
[15] = system: HCT-116
[16] = system: OVCAR-4

Measured: GI50

Cc1nc(-c2cccnc2)sc1C(=O)/C=C/c1cccc([N+](=O)[O-])c1
inactive: [1] > 100 µM | [2] > 100 µM | [3] > 100 µM | [4] > 100 µM | [5] > 100 µM | [6] > 100 µM | [7] > 100 µM | [8] > 100 µM | [9] > 100 µM | [10] > 100 µM | [11] > 100 µM | [12] > 100 µM | [13] > 100 µM

C=CCCC(OCOCCOC)c1cc(C)c(O[Si](C)(C)C(C)(C)C)c(C)c1 (stereo not drawn)
inactive: [1] 14.9 µM | [2] 22.8 µM | [3] 13.3 µM | [5] 19.9 µM | [6] 13.5 µM | [14] 34.4 µM | [7] 13.5 µM | [8] 17.3 µM | [9] 18.4 µM | [10] 19.5 µM | [11] 15.8 µM | [12] 10.1 µM | [13] 4.58 µM

CCO/N=[N+](\[O-])N(CC)CC
inactive: [2] > 100 µM | [3] > 100 µM | [15] > 100 µM | [4] > 100 µM | [5] > 100 µM | [6] > 100 µM | [14] > 100 µM | [7] > 100 µM | [8] > 100 µM | [9] > 100 µM | [10] > 100 µM | [11] > 100 µM | [12] > 100 µM | [13] > 100 µM

CN(C)Cc1cc(/C(=C(\C#N)c2ccccc2)c2ccc(O)cc2)ccc1O
inactive: [1] 15 µM | [2] 32.2 µM | [3] 18.4 µM | [15] 10.2 µM | [4] 15.4 µM | [5] 30.5 µM | [6] 19.9 µM | [14] 10.4 µM | [7] 21.9 µM | [16] 21.5 µM | [8] 18.4 µM | [10] 13.6 µM | [11] 17.3 µM | [12] 14.5 µM | [13] 15.6 µM

O=C(Nc1ccc(Cl)cc1Cl)c1c/c(=N\O)c2ccc(O)cc2o1
inactive: [1] > 100 µM | [2] > 100 µM | [3] > 100 µM | [15] > 100 µM | [4] > 100 µM | [5] > 100 µM | [6] > 100 µM | [14] > 100 µM | [7] > 100 µM | [16] > 100 µM | [8] > 100 µM | [9] > 100 µM | [10] > 100 µM | [12] > 100 µM | [13] > 100 µM

O=C(CC(=O)c1ccc([N+](=O)[O-])cc1)C(=O)Nc1nccs1
inactive: [1] > 100 µM | [3] > 100 µM | [4] > 100 µM | [5] > 100 µM | [6] > 100 µM | [14] > 100 µM | [7] > 100 µM | [16] > 100 µM | [9] > 100 µM | [10] > 81.5 µM | [11] > 100 µM | [12] > 100 µM

COc1ccc(/C(Cl)=C(\C=O)c2ccc(Cl)cc2)cc1OC
inactive: [2] 23.7 µM | [3] 2.98 µM | [15] 4.33 µM | [4] 4.97 µM | [5] 8.89 µM | [14] 22.4 µM | [7] 4.59 µM | [16] 5.12 µM | [8] 4.15 µM | [9] 9.79 µM | [11] 3.71 µM | [12] 9.25 µM | [13] 6.55 µM

CC1(C)OC(=O)C(c2ccsc2)C(=O)O1
inactive: [1] > 100 µM | [3] > 100 µM | [15] > 100 µM | [4] > 100 µM | [6] > 100 µM | [14] > 100 µM | [7] > 100 µM | [16] > 100 µM | [8] > 100 µM | [9] > 100 µM | [10] > 100 µM | [11] > 100 µM | [12] > 100 µM | [13] > 100 µM

COC(=O)C(C#N)C1NC(=O)c2ccccc21 (stereo not drawn)
inactive: [1] > 100 µM | [2] > 100 µM | [3] > 100 µM | [15] > 100 µM | [4] > 100 µM | [5] > 100 µM | [6] > 100 µM | [14] > 100 µM | [7] > 100 µM | [16] > 100 µM | [8] > 100 µM | [9] > 100 µM | [10] > 100 µM | [12] > 100 µM | [13] > 100 µM

Nc1n[n+](-c2ccccc2)no1
inactive: [1] 52.1 µM | [2] 46 µM | [3] 31.8 µM | [15] 28.3 µM | [4] 42.5 µM | [5] 24.4 µM | [6] 10.1 µM | [14] 32.7 µM | [7] > 100 µM | [16] > 100 µM | [8] 33.8 µM | [9] 51.4 µM | [12] 52.7 µM | [13] 25.9 µM

NC1=NS(=O)(=O)Nc2nc(-c3ccc([N+](=O)[O-])o3)[nH]c21
inactive: [1] 15.6 µM | [2] 76.6 µM | [3] 3.6 µM | [15] 4.58 µM | [4] 19.4 µM | [5] 17.2 µM | [6] 18.6 µM | [14] 14.9 µM | [16] 17.1 µM | [8] 16.3 µM | [9] 17.3 µM | [10] 16 µM | [11] 16.5 µM | [12] 18.3 µM

C1=CC=C2NCCSCC/N=C3/C=CC=CC=C3NCCSCC/N=C\2C=C1
inactive: [1] > 100 µM | [2] > 100 µM | [3] > 100 µM | [15] > 100 µM | [4] > 100 µM | [5] > 100 µM | [6] > 100 µM | [14] > 100 µM | [7] > 100 µM | [16] > 100 µM | [8] > 100 µM | [10] > 100 µM | [11] > 100 µM | [12] > 100 µM | [13] > 100 µM

Cn1nc2ccc3nccc(NCCNCCCl)c3c2n1
inactive: [3] > 100 µM | [15] > 100 µM | [4] > 100 µM | [5] > 100 µM | [6] > 100 µM | [14] > 100 µM | [7] > 100 µM | [16] > 100 µM | [8] > 100 µM | [9] > 100 µM | [10] > 100 µM | [11] > 100 µM

COc1cc(OC)c([C@@H]2OC(=O)C3C2C(=O)O[C@H]3c2cc(OC)c(OC)cc2OC)cc1OC (stereo partly drawn)
inactive: [1] > 100 µM | [2] > 100 µM | [3] > 100 µM | [15] > 100 µM | [4] > 100 µM | [5] > 10 µM | [6] > 100 µM | [14] > 100 µM | [16] 45.4 µM | [8] > 100 µM | [9] > 100 µM | [10] > 100 µM | [11] > 100 µM | [13] > 100 µM
